ChEMBL document CHEMBL1201862, “PubChem BioAssay data set” (2004)
The source made the active and inactive calls.

Legend:
[1] = molecular target: Muscarinic acetylcholine receptor M1 (Rattus norvegicus, UniProt P08482); experiment: rat M1 positive allosteric modulator potency, dose response, cell-based, calcium mobilization, CHO-K1, ACh EC20 (AID 2425); type: functional
Bcl-2-related protein A1 [2] = molecular target: T1, Bcl-2-related protein A1 (Mus musculus, UniProt Q07440); experiment: Bfl-1 inhibitors, primary screen, biochemical, fluorescence polarization, FITC-Bid, mouse (AID 432)
T1 sequence (Q07440 whole entry): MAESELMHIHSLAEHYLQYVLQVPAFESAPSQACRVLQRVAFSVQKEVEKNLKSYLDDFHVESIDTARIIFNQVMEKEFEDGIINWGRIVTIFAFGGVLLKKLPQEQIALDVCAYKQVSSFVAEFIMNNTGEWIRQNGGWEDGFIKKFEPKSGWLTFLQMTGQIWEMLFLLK

Bcl-2-related protein A1 [3] = molecular target: T1, Bcl-2-related protein A1; experiment: Bfl-1 inhibitors blocking BH3 peptide binding, confirmation, biochemical, TR-FRET, mouse Bfl-1 (AID 621);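 further: TR-FRET binding of GST-Bfl-1 to FITC-labelled Bid peptide via terbium antibody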
Aspartyl aminopeptidase [4] = molecular target: T2, Aspartyl aminopeptidase (Plasmodium falciparum 3D7, UniProt Q8I2J3); experiment: Counterscreen for inhibitors of M1 and M17 aminopeptidases: QFRET-based biochemical high throughput dose response assay for inhibitors of the Plasmodium falciparum M18 Aspartyl Aminopeptidase (PFM18AAP). [Related PubChem assays: 1619 (Screening assay (M17LAP inhibitors).), 1445 (Screening assay (M1AAP inhibitors).)]
T2 sequence (Q8I2J3 whole entry): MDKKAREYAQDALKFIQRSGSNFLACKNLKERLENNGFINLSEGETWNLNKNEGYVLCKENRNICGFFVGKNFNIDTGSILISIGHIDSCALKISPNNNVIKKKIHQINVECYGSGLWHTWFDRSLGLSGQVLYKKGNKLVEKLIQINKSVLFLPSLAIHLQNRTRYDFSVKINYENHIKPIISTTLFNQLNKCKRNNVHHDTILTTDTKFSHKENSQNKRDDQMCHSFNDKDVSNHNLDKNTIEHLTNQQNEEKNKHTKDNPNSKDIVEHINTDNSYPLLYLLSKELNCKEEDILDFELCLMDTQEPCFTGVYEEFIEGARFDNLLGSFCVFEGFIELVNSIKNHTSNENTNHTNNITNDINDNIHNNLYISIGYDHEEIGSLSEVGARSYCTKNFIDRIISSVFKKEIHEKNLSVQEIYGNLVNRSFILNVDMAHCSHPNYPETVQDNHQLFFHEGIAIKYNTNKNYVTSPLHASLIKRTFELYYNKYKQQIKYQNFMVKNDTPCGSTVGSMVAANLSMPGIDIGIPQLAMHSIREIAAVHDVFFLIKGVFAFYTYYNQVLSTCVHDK

[5] = molecular target: T3, Heat shock factor protein 1 (Mus musculus, UniProt P38532); experiment: HSF1 potentiators in luciferase reporter cells, confirmation, cell-based, NIH3T3, luminescence, dose retest (AID 435004); type: functional;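 further: stress induced by proteasome inhibitor MG132 added 30 min after compound; luciferase reporter driven by HSF1 response element in NIH3T3 cells; actives raise luminescence as potentiators of the MG132 stress response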
T3 sequence (P38532 whole entry): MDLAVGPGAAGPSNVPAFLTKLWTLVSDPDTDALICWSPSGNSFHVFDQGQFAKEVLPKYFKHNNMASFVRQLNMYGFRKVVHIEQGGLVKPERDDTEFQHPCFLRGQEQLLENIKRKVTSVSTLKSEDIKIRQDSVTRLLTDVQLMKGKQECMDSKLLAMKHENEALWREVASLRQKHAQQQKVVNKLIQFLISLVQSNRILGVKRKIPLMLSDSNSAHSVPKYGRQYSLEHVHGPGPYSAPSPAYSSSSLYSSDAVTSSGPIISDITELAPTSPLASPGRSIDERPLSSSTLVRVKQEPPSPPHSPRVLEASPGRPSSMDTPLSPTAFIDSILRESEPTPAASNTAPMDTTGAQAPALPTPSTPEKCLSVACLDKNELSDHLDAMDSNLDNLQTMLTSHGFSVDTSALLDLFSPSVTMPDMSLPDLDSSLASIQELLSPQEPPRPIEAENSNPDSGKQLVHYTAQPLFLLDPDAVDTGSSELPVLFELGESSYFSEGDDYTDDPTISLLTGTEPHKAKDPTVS

Procathepsin L [6] = molecular target: T4, Procathepsin L (Homo sapiens, UniProt P07711); experiment: cathepsin L inhibitors, dose response, counter-screen for M1/M17 aminopeptidase inhibitor project, biochemical, QFRET, 1536-well (AID 2214)
Leucine aminopeptidase = molecular target: T5, Leucine aminopeptidase (Plasmodium falciparum 3D7, UniProt Q8IL11); experiment: P. falciparum M17LAP inhibitors, primary screen, biochemical, fluorogenic H-Leu-NHMec substrate, 1536-well (AID 1619); type: functional
T5 sequence (Q8IL11 whole entry): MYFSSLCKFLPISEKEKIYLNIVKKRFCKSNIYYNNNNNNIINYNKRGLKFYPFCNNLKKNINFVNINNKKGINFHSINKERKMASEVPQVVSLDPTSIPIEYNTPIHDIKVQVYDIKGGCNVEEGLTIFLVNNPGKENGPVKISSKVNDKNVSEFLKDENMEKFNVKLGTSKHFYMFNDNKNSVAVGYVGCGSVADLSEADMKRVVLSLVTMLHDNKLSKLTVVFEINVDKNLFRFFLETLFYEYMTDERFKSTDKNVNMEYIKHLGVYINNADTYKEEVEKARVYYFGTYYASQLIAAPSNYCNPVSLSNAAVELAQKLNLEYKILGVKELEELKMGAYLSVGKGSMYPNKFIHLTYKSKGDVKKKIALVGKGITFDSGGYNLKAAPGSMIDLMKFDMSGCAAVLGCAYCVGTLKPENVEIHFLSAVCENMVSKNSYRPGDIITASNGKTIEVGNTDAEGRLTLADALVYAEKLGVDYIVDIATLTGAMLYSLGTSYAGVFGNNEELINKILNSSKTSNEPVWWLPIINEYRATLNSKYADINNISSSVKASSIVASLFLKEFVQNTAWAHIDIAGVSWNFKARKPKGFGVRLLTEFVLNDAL

[7] = cytotoxicity in KRAS-transformed pancreatic duct cells, primary screen, cell-based, fluorescence, HTS (AID 431); type: functional; conditions: Homo sapiens;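 further: cell line used: HPDE-C7K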
[8] = cytotoxicity in HPDE-C7 cells, cell-based, fluorescence, HTS (AID 430); type: functional; conditions: Homo sapiens
Cytochrome P450 2C19 = Cytochrome P450 2C19 (Homo sapiens, UniProt P33261); experiment: qHTS Assay for Inhibitors and Substrates of Cytochrome P450 2C19. [Related pubchem assays: 410 ]; type: ADME; conditions: read-out: Potency
NADPH oxidase 1 = NADPH oxidase 1 (Homo sapiens, UniProt Q9Y5S8); experiment: Late-stage luminescence-based cell-based dose response assay to identify inhibitors of NADPH oxidase 1 (NOX1): Purchased analogs 2.; type: functional
[9] = molecular target: Photoreceptor-specific nuclear receptor (Homo sapiens, UniProt Q9Y5X4); experiment: NR2E3 inverse agonists, dose response, biochemical, TR-FRET (AID 463256); type: functional
[10] = molecular target: T3, Heat shock factor protein 1; experiment: inhibition of MG132-induced HSE-luciferase signal, confirmation, cell-based, NIH3T3, luminescence, dose retest (AID 2382); type: functional;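 further: NIH3T3 fibroblasts with HSF1-driven luciferase reporter stressed by proteasome inhibitor MG132; luminescence from HSF1-driven luciferase expression after 8 hours of MG132 stress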
[11] = molecular target: Peroxisome proliferator-activated receptor gamma/Nuclear receptor corepressor 2 (Homo sapiens, UniProt P37231+Q9Y618); experiment: Counterscreen for NR2E3 inverse agonists: TR-FRET-based biochemical high throughput dose response assay to identify inverse agonists of the interaction between peroxisome proliferator-activated receptor gamma (PPARg) and nuclear receptor co-repressor 2 (NCOR2).; type: functional
[12] = cytotoxicity toward DRD oncogenic fibroblasts, dose response, cell-based, non-viral oncogenic, luminescence (AID 1934); type: functional; conditions: Homo sapiens
[13] = Luminescence-based dose response cell-based high throughput screening assay for cytotoxic compounds using the IEC-6 intestinal epithelial cell line. [Related pubchem assays: 1858 (Summary AID.), 1825 (Counterscreen.), 1907 (Confirmation screen.)]; type: functional
Vero [14] = experiment: cells; type: functional, cell-based; conditions: Chlorocebus sabaeus
[15] = Vero E6 cell cytotoxicity, dose response, cytotoxicity control for non-replicating M. tuberculosis project, secondary assay (AID 492998); type: functional, VeroE6; conditions: Vero C1008
Vero [16] = experiment: cells; type: functional; conditions: Chlorocebus sabaeus
[17] = HepG2 cell cytotoxicity, dose response, cytotoxicity control for non-replicating M. tuberculosis project (AID 489018); type: functional; conditions: Mycobacterium tuberculosis
BJ [18] = experiment: cytotoxicity toward Ras-transformed BJeLR fibroblasts, dose response, cell-based, alamar blue fluorescence, cherrypicked samples (AID 2631); type: functional; conditions: Homo sapiens;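 further: confirmatory dose-response assay in RAS-dependent BJ fibroblasts engineered with TERT, LT and ST, with cytotoxicity read by fluorescence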
INS1 = experiment: beta cell apoptosis inhibitors, cytokine rescue, dose response, luminescence, retest (AID 449756); type: functional, cell-based; conditions: Rattus norvegicus;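 further: cell death triggered by IL-1 beta plus TNF-alpha plus IFN-gamma mixture; protective hits raise ATP signal compared with cytokine alone wells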
Nonstructural protein 1 = Nonstructural protein 1 (Influenza A virus, UniProt Q194T2); type: functional, Influenza A virus (A/California/07/2009(H1N1))
cells = type: functional
BJ [19] = experiment: cells; type: functional, cell-based; conditions: Homo sapiens
BJ [20] = experiment: cytotoxicity toward BJ-TERT fibroblasts, dose response, cell-based, RAS-independent, luminescence (AID 1933); type: functional; conditions: Homo sapiens
BJ [21] = experiment: cytotoxicity toward BJ-TERT-LT-ST fibroblasts, dose response, cell-based, RAS-independent, luminescence (AID 1935); type: functional; conditions: Homo sapiens;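 further: BJ fibroblasts immortalized with TERT plus LT and ST oncogenes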
[22] = THP-1 cell cytotoxicity, dose response, cytotoxicity control for non-replicating M. tuberculosis project (AID 489025); type: functional
[23] = NIH-3T3 fibroblast cytotoxicity, dose response, cytotoxicity control, cell-based, fluorescence, Alamar Blue, secondary assay (AID 2327); type: functional;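 further: NIH-3T3 mouse fibroblasts cultured with fluconazole at 8 µg/mL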
Vero [24] = experiment: West Nile virus antiviral activity, cell-based, CPE readout (AID 1621); type: functional; conditions: Chlorocebus sabaeus
Vero [25] = experiment: host cell cytotoxicity of antiviral hits, dose response, cytotoxicity control for West Nile virus antiviral project, secondary assay (AID 1650); type: functional; conditions: Chlorocebus sabaeus
Aspartyl aminopeptidase [26] = molecular target: T2, Aspartyl aminopeptidase
Paired box protein Pax-8 = Paired box protein Pax-8 (Homo sapiens, UniProt Q06710); experiment: inhibitors of PAX8-driven TPO luciferase reporter, dose response, RMG-I cells, cherry-pick (AID 687027); type: functional, cell-based;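 further: luciferase reporter driven by Pax8 target thyroperoxidase promoter measured by SteadyGlo luminescence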
[27] = molecular target: T6, Microphthalmia-associated transcription factor (Homo sapiens, UniProt O75030); experiment: TRPM1 promoter luciferase signal decrease, dose response, MITF inhibitor project, cell-based, SK-MEL-5, cherry-picked, set 3 (AID 493073); type: functional
T6 sequence (O75030 whole entry): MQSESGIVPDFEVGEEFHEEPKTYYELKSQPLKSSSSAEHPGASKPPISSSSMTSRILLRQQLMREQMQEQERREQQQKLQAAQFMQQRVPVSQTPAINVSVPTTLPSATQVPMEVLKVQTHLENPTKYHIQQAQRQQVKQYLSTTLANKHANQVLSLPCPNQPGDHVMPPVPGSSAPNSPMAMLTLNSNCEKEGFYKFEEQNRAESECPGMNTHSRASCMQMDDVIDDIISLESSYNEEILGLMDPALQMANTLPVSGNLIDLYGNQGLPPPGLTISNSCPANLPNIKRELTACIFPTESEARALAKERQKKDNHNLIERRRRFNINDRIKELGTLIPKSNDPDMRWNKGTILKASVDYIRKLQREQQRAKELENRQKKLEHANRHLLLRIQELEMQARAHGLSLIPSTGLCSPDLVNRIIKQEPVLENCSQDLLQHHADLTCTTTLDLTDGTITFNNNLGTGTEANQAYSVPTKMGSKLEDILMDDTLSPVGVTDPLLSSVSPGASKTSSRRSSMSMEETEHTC

Procathepsin L [28] = molecular target: T4, Procathepsin L
[29] = C. albicans growth with fluconazole, confirmation, fluorescence, retest (AID 2467); type: functional, cell-based

T4 sequence (P07711 whole entry): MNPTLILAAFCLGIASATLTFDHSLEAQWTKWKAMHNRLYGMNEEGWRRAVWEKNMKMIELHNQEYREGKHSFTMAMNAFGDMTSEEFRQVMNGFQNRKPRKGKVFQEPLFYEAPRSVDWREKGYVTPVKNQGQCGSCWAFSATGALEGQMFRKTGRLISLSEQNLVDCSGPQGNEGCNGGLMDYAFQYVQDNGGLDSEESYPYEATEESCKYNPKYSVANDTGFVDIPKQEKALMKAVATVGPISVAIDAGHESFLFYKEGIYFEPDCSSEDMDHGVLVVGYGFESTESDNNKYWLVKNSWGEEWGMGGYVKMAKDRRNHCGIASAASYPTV
Chain of Peroxisome proliferator-activated receptor gamma/Nuclear receptor corepressor 2 (P37231 whole entry): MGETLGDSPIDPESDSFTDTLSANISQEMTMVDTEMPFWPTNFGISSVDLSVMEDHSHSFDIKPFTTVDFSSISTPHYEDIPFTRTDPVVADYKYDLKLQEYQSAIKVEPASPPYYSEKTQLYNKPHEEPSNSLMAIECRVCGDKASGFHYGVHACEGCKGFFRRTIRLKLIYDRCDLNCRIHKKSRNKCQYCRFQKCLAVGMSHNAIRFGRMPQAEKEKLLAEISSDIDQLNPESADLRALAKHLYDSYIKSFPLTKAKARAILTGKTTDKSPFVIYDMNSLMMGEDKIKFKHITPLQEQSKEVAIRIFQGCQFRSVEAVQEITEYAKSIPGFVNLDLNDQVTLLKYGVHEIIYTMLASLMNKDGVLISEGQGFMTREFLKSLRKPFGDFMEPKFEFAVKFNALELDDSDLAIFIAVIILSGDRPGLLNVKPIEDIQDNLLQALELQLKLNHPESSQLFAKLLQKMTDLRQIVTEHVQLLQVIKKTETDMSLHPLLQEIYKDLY
Chain of Peroxisome proliferator-activated receptor gamma/Nuclear receptor corepressor 2 (Q9Y618 whole entry): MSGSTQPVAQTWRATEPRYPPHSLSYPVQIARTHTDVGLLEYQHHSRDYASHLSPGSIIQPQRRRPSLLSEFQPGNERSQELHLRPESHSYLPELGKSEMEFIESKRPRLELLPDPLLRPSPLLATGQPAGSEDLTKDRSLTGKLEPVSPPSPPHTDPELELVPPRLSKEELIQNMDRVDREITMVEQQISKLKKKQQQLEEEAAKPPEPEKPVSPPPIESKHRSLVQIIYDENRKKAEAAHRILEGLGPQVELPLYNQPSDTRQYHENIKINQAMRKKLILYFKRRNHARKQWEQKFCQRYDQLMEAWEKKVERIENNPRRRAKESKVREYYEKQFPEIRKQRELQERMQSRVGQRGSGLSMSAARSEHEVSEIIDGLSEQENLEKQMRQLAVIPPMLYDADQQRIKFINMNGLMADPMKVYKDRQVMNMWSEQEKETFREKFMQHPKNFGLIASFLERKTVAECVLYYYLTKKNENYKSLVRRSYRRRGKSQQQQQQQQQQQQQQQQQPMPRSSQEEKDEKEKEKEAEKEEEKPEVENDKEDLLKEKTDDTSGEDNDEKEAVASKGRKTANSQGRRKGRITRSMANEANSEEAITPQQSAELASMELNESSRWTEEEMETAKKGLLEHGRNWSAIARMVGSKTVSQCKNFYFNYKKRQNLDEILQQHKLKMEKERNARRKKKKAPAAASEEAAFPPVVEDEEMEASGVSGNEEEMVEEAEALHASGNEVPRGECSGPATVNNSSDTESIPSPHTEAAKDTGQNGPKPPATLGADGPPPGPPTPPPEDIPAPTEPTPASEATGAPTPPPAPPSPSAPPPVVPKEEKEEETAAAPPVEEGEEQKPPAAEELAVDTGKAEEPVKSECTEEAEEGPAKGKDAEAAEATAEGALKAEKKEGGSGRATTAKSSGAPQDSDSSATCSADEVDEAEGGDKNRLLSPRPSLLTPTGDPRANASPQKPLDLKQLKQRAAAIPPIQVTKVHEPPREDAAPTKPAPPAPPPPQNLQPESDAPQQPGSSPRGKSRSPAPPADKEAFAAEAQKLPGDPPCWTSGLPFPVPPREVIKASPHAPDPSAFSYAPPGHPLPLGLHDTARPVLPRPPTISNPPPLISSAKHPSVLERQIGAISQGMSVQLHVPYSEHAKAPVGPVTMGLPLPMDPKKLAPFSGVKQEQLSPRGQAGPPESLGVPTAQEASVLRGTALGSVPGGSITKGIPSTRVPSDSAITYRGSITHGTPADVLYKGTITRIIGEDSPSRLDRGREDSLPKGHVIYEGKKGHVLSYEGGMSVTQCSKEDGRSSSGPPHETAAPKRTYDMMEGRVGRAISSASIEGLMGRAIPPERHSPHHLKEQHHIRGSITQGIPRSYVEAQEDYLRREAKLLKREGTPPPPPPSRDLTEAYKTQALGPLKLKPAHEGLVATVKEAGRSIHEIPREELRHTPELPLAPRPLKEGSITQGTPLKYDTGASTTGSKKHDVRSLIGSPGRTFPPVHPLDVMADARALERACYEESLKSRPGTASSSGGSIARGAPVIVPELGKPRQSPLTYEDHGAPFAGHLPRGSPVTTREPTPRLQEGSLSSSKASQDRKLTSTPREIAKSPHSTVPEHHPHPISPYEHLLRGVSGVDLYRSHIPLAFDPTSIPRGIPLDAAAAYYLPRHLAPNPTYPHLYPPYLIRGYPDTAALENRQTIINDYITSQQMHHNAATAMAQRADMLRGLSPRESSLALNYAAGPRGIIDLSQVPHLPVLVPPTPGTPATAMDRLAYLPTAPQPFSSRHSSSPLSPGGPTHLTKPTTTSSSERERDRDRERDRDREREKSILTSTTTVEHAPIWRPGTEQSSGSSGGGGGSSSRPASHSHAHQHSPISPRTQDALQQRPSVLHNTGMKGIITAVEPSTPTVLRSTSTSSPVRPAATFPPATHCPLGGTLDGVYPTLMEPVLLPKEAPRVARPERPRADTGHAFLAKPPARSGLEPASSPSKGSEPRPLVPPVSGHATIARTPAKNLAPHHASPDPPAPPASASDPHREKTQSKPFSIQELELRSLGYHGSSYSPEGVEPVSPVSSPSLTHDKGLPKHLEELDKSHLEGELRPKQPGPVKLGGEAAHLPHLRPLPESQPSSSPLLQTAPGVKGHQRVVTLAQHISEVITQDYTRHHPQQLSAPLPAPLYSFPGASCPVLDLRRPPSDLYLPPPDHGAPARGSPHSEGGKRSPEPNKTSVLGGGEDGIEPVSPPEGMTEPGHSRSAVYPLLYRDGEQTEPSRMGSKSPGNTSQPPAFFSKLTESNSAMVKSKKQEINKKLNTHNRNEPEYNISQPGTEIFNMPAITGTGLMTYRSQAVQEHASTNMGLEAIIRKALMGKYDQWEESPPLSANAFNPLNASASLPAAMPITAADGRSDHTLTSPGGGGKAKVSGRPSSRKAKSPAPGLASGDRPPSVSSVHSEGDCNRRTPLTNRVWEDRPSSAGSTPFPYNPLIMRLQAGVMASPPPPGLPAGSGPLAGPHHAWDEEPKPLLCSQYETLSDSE
Chain of Photoreceptor-specific nuclear receptor (Q9Y5X4 whole entry): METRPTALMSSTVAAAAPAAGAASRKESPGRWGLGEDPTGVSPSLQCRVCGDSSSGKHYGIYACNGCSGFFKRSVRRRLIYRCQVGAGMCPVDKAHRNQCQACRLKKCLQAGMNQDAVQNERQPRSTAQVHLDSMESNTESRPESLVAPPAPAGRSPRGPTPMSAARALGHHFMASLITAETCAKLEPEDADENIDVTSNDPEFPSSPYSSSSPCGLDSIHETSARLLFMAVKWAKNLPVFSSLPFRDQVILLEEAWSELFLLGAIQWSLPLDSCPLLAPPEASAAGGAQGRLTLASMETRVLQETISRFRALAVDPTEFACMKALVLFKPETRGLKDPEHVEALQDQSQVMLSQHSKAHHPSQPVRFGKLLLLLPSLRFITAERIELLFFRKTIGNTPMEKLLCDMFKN
Chain of NADPH oxidase 1 (Q9Y5S8 whole entry): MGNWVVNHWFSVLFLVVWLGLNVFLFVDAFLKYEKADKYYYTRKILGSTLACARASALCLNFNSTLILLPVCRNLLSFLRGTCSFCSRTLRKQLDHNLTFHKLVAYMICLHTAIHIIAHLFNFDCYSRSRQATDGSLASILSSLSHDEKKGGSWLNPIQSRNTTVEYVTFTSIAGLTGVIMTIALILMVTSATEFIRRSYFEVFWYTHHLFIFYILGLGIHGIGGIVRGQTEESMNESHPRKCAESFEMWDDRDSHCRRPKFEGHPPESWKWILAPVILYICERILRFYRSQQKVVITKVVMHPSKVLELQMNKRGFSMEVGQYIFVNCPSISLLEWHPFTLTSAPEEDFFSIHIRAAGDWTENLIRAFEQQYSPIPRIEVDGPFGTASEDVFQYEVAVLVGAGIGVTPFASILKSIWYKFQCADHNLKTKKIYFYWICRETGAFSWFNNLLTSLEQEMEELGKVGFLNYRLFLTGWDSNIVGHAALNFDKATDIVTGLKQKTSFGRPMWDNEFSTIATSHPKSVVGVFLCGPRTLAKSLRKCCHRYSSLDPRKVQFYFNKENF
Chain of Cytochrome P450 2C19 (P33261 whole entry): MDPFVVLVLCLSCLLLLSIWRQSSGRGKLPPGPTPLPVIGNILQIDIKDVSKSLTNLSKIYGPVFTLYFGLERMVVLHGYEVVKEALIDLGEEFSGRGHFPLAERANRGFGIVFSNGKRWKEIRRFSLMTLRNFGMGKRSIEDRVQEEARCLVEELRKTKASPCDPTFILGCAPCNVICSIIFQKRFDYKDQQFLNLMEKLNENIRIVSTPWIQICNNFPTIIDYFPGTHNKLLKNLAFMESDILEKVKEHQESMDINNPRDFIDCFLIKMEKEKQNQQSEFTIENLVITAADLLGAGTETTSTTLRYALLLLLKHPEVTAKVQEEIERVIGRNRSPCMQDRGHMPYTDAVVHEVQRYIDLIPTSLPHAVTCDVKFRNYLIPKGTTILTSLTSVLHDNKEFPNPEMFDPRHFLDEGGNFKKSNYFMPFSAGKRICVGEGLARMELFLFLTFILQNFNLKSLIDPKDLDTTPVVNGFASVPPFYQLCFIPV
Chain of Nonstructural protein 1 (Q194T2 whole entry): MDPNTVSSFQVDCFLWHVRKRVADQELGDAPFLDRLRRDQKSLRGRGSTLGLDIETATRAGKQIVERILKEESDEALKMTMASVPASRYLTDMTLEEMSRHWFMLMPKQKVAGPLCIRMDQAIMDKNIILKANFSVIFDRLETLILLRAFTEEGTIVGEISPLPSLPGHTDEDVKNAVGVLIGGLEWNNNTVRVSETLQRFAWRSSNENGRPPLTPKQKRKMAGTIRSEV

Cc1cc(NC(=O)CS(=O)(=O)c2cn(Cc3cccc(F)c3)c3ccccc23)no1
EC50 [1]: 5.32 µM (active)

Brc1ccc(-c2nnc3ccc(N4CCN(c5ccccc5)CC4)nn23)cc1
IC50 (Bcl-2-related protein A1 [2]): 8.88 µM (active) | IC50 (Bcl-2-related protein A1 [3]): > 100 µM (not active)

O=C(CSc1nc(O)cc(=O)n1-c1ccccc1)Nc1ccc2c3c(cccc13)CC2
IC50 (Aspartyl aminopeptidase [4]): > 73.5 µM (not active) | EC50 [5]: > 260 µM (inactive) | IC50 (Procathepsin L [6]): > 59.6 µM (not active) | IC50 (Leucine aminopeptidase): 1.45 µM (active)

O=S(=O)(c1ccc(Cl)c(Cl)c1)N1CCc2nc3ccccc3n2CC1
EC50 [7]: > 20 µM (not active) | EC50 [8]: 0.49 µM (active)

O=c1cc(-c2ccc(O)cc2O)oc2ccccc12
AC50 (Cytochrome P450 2C19): 6.31 µM (inconclusive)

C=C(NNc1c(F)c(F)nc(F)c1F)c1ccc(-n2cncn2)cc1
IC50 (NADPH oxidase 1): > 17 µM (not active)

O=C(CCCCCn1c(=S)[nH]c2cc3c(cc2c1=O)OCO3)N1CCN(C(=O)c2ccco2)CC1
IC50 [9]: 3.68 µM (active) | EC50 [10]: > 195 µM (not active) | IC50 [11]: > 39.8 µM (not active)

COc1ccc(C(=O)N/N=C(\C)c2ccccn2)cc1OC
EC50 [12]: 5.69 µM (active) | IC50 [13]: 0.937 µM (active) | IC50 (Vero [14]): > 25 µM (active) | CC50 [15]: 2.88 µM (active) | CC50 (Vero [16]): 2.83 µM (active) | CC50 [17]: 9.24 µM (active) | EC50 (BJ [18]): 1.23 µM (active) | AC50 (INS1): 0.584 µM (active) | IC50 (Nonstructural protein 1): 2.93 µM (active) | IC50 (cells): 3.01 µM (active) | EC50 (BJ [19]): 2.07 µM (active) | EC50 (BJ [20]): 9.02 µM (active) | EC50 (BJ [21]): 4.38 µM (active) | CC50 [22]: 0.822 µM (active)

BrC(=C\c1ccccc1)/C=N/n1cnnc1
EC50 [23]: > 150 µM (inconclusive) | IC50 (Vero [24]): 39.2 µM (active) | CC50 (Vero [25]): 6.4 µM (active) | IC50 (Aspartyl aminopeptidase [26]): 1.89 µM (active) | AC50 (Paired box protein Pax-8): 3.84 µM (active) | AC50 [27]: 7.26 µM (active) | IC50 (Procathepsin L [28]): > 59.6 µM (not active) | EC50 [29]: 1.01 µM (active)
